# Source: PubChem BioAssay AID330 (DTP/NCI, 2004)
# “And” between values parts separate entries of the source, which are not always exact repeats. Equal values may be shown once. Toxic doses and inconclusive results are not listed.
# Tested on: P388 leukemia ip, CD2F1 mice, survival T/C
# Assay: NCI In Vivo Anticancer Drug Screen. Data for tumor model P388 Leukemia (intraperitoneal) in CD2F1 (CDF1) mice
# Details: endpoint: median survival time, higher = longer survival
# Summary of the method: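 Mice carrying the transplanted tumor received test compound or vehicle. Survival was recorded in each group, and the value is the treated-group measurement divided by that of the vehicle-treated control group.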
# [1] = dose: 50.0 mg/kg/injection, schedule: Q01DX005 (ip), vehicle: saline with Tween-80
# [2] = dose: 100.0 mg/kg/injection, schedule: Q01DX005 (ip), vehicle: saline with Tween-80
# [3] = dose: 50.0 mg/kg/injection, schedule: Q01DX009 (ip), vehicle: saline
# [4] = dose: 100.0 mg/kg/injection, schedule: Q01DX009 (ip), vehicle: saline
# [5] = dose: 200.0 mg/kg/injection, schedule: Q01DX005 (ip), vehicle: saline with Tween-80
compound,measurement,setting,value
NC1CC2CCCCC2CC1c1ccccc1 (stereo not drawn),T/C,"dose: 100.0 mg/kg/injection, schedule: Q01DX001 (ip), vehicle: Klucel (hydroxypropylcellulose) (HPC)",91 % of control
same,T/C,"dose: 200.0 mg/kg/injection, schedule: Q01DX001 (ip), vehicle: Klucel (hydroxypropylcellulose) (HPC)",97 % of control
same,T/C,"dose: 400.0 mg/kg/injection, schedule: Q01DX001 (ip), vehicle: Klucel (hydroxypropylcellulose) (HPC)",96 % of control
C/C(=C\C(=O)Nc1ncn[nH]1)Nc1ncn[nH]1,T/C,"dose: 50.0 mg/kg/injection, schedule: Q01DX009 (ip), vehicle: Klucel (hydroxypropylcellulose) (HPC)",107 % of control
same,T/C,"dose: 100.0 mg/kg/injection, schedule: Q01DX009 (ip), vehicle: Klucel (hydroxypropylcellulose) (HPC)",100 % of control
same,T/C,"dose: 200.0 mg/kg/injection, schedule: Q01DX009 (ip), vehicle: Klucel (hydroxypropylcellulose) (HPC)",100 % of control
same,T/C,"dose: 400.0 mg/kg/injection, schedule: Q01DX009 (ip), vehicle: Klucel (hydroxypropylcellulose) (HPC)",99 % of control
CCN(CC)Cc1cc2[nH]c3c4ccc(Cl)cc4ncc3c2cc1OC (tested in a mixture with another compound),T/C,"dose: 12.5 mg/kg/injection, schedule: Q01DX005 (ip), vehicle: saline with Tween-80",100 % of control and 108 % of control
same,T/C,"dose: 25.0 mg/kg/injection, schedule: Q01DX005 (ip), vehicle: saline with Tween-80",109 % of control [middle of 4 runs]
same,T/C,[1],102 % of control and 103 % of control and 113 % of control
same,T/C,[2],105 % of control and 109 % of control and 106 % of control
CC(=O)OCc1ccc2ccccc2c1,T/C,"dose: 100.0 mg/kg/injection, schedule: Q01DX009 (ip), vehicle: saline sonified",100 % of control
same,T/C,"dose: 200.0 mg/kg/injection, schedule: Q01DX009 (ip), vehicle: saline sonified",100 % of control
same,T/C,"dose: 400.0 mg/kg/injection, schedule: Q01DX009 (ip), vehicle: saline sonified",100 % of control
O=C(O)c1c(Cl)c(Cl)c(Cl)c(Cl)c1C(=O)Nc1ccc2cn[nH]c2c1,T/C,"dose: 50.0 mg/kg/injection, schedule: Q01DX009 (ip), vehicle: saline + alcohol",101 % of control
same,T/C,"dose: 100.0 mg/kg/injection, schedule: Q01DX009 (ip), vehicle: saline + alcohol",100 % of control
COc1cc2c(cc1OC)CC[N+](CCC[N+](C)(C)C)=C2,T/C,"dose: 12.5 mg/kg/injection, schedule: Q01DX009 (ip), vehicle: saline",104 % of control
same,T/C,"dose: 25.0 mg/kg/injection, schedule: Q01DX009 (ip), vehicle: saline",95 % of control
same,T/C,[3],97 % of control
same,T/C,[4],89 % of control
Cc1ccccc1NC(=O)C(=O)C(C#N)c1ccc(Cl)cc1Cl (stereo not drawn),T/C,[1],100 % of control
same,T/C,[2],100 % of control
same,T/C,[5],98 % of control
CN(C)P(=O)(N(C)C)N1CCCC1,T/C,[3],104 % of control
same,T/C,[4],106 % of control
same,T/C,"dose: 200.0 mg/kg/injection, schedule: Q01DX009 (ip), vehicle: saline",105 % of control
Nc1ncnc2c1c1c(=S)nc[nH]c1n2C1OC(CO)C(O)C1O (stereo not drawn),T/C,"dose: 25.0 mg/kg/injection, schedule: Q01DX009 (ip), vehicle: water",158 % of control
same,T/C,"dose: 50.0 mg/kg/injection, schedule: Q01DX009 (ip), vehicle: water",165 % of control
same,T/C,"dose: 100.0 mg/kg/injection, schedule: Q01DX009 (ip), vehicle: water",177 % of control
CSc1nc2[nH]c(=O)[nH]c(=O)c2[nH]1,T/C,[1],95 % of control
same,T/C,[2],94 % of control
same,T/C,[5],108 % of control
CC(=O)Oc1ccc(N=Cc2cc3c(cc2[N+](=O)[O-])OCO3)cc1,T/C,"dose: 12.5 mg/kg/injection, schedule: Q01DX009 (ip), vehicle: other",113 % of control
same,T/C,"dose: 25.0 mg/kg/injection, schedule: Q01DX009 (ip), vehicle: other",117 % of control
same,T/C,"dose: 50.0 mg/kg/injection, schedule: Q01DX009 (ip), vehicle: other",109 % of control
same,T/C,"dose: 100.0 mg/kg/injection, schedule: Q01DX009 (ip), vehicle: other",93 % of control
same,T/C,"dose: 200.0 mg/kg/injection, schedule: Q01DX009 (ip), vehicle: other",92 % of control
same,T/C,"dose: 400.0 mg/kg/injection, schedule: Q01DX009 (ip), vehicle: other",96 % of control
CCc1cccc(C)c1N1C(=O)C(=O)C(c2nc3ccccc3o2)/C(=N\NS(=O)(=O)c2ccc(C)cc2)C1=O (stereo not drawn),T/C,"dose: 60.0 mg/kg/injection, schedule: Q01DX005 (ip), vehicle: saline with Tween-80",98 % of control
same,T/C,"dose: 120.0 mg/kg/injection, schedule: Q01DX005 (ip), vehicle: saline with Tween-80",100 % of control
same,T/C,"dose: 240.0 mg/kg/injection, schedule: Q01DX005 (ip), vehicle: saline with Tween-80",97 % of control
O=P(N1CC1)(N1CC1)N1CC1,T/C,"dose: 3.0 mg/kg/injection, schedule: Q01DX009 (ip), vehicle: saline",216 % of control
Cc1ccc(NC(=O)C(=O)C(C#N)c2c(Cl)cccc2Cl)c(C)c1 (stereo not drawn),T/C,[1],102 % of control
same,T/C,[2],105 % of control
same,T/C,[5],105 % of control
COC(=O)c1c(C(=O)Nc2ccc(Cl)cc2)c(C)n(NC(N)=O)c1C,T/C,[1],95 % of control
same,T/C,[2],95 % of control
same,T/C,[5],101 % of control
